Measurements taken from patent US9963445B2, “Chemical compounds” (SYNGENTA PARTICIPATIONS AG, priority 2013, dated 2018).

Columns and labels:
Type in all cases: in vivo
Abutilon theophrasti [1] = assay: Pre-emergence herbicidal activity, glasshouse pot test; details: pre-emergence spray, rate 1000 g/ha, evaluated after 13 days, scale 0-5
How it was run: (§1)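 Glasshouse conditions were 24/16 °C day/night with 14 h light and 65% humidity throughout. Soil was sprayed before emergence, one day after sowing, using an acetone/water (50:50) formulation with 0.5% Tween 20; injury was scored 0–5 after 13 days.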

Alopecurus myosuroides [2] = assay: as above; details: pre-emergence spray, rate 1000 g/ha, evaluated after 13 days, scale 0-5
How it was run: as §1

Amaranthus retroflexus [3] = assay: as above; details: pre-emergence spray, rate 1000 g/ha, evaluated after 13 days, scale 0-5
How it was run: as §1

Echinochloa crus-galli [4] = assay: as above; details: pre-emergence spray, rate 1000 g/ha, evaluated after 13 days, scale 0-5
How it was run: as §1

Setaria faberi [5] = assay: as above; details: pre-emergence spray, rate 1000 g/ha, evaluated after 13 days, scale 0-5
How it was run: as §1

zea mays [6] = assay: as above; details: pre-emergence spray, rate 1000 g/ha, evaluated after 13 days, scale 0-5
How it was run: as §1

Abutilon theophrasti [7] = assay: Post-emergence herbicidal activity, glasshouse pot test; set-up: key: 0 = no damage to plant, 5 = total damage to plant; details: Application post-emergence, rate 1000 g/ha, evaluated after 13 days
How it was run: (§2)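 Damage rated 0 (none) to 5 (total) 13 days after spraying. Plants were treated post-emergence at 8 days after sowing, using an acetone/water (50:50) formulation with 0.5% Tween 20 diluted to an aqueous spray.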

Alopecurus myosuroides [8] = assay: as above; set-up: key: 0 = no damage to plant, 5 = total damage to plant; details: Application post-emergence, rate 1000 g/ha, evaluated after 13 days
How it was run: as §2

Amaranthus retroflexus [9] = assay: as above; set-up: key: 0 = no damage to plant, 5 = total damage to plant; details: Application post-emergence, rate 1000 g/ha, evaluated after 13 days
How it was run: as §2

Echinochloa crus-galli [10] = assay: as above; set-up: key: 0 = no damage to plant, 5 = total damage to plant; details: Application post-emergence, rate 1000 g/ha, evaluated after 13 days
How it was run: as §2

Setaria faberi [11] = assay: as above; set-up: key: 0 = no damage to plant, 5 = total damage to plant; details: Application post-emergence, rate 1000 g/ha, evaluated after 13 days
How it was run: as §2

zea mays [12] = assay: as above; set-up: key: 0 = no damage to plant, 5 = total damage to plant; details: Application post-emergence, rate 1000 g/ha, evaluated after 13 days
How it was run: as §2

Compound	ABUTH damage score, application pre-emergence (Abutilon theophrasti [1])	ALOMY damage score, application pre-emergence (Alopecurus myosuroides [2])	AMARE damage score, application pre-emergence (Amaranthus retroflexus [3])	ECHCG damage score, application pre-emergence (Echinochloa crus-galli [4])	SETFA damage score, application pre-emergence (Setaria faberi [5])	ZEAMX damage score, application pre-emergence (zea mays [6])	ABUTH herbicidal damage score (Abutilon theophrasti [7])	ALOMY herbicidal damage score (Alopecurus myosuroides [8])	AMARE herbicidal damage score (Amaranthus retroflexus [9])	ECHCG herbicidal damage score (Echinochloa crus-galli [10])	SETFA herbicidal damage score (Setaria faberi [11])	ZEAMX herbicidal damage score (zea mays [12])
CC#Cc1nnc(N2C(=O)C(OC)=C(C)C2O)cc1C(C)(C)F (stereo not drawn) [BI12]	4	2	5	4	5	3	5	4	5	5	5	4
C=C(OCC)c1nnc(N2C(=O)C(OC)=C(C)C2O)cc1C(C)(C)F (stereo not drawn) [BI13]	5	4	5	5	5	2	5	5	5	5	5	2
COC1=C(C)C(O)N(c2cc(C(C)(C)F)c(Cl)nn2)C1=O (stereo not drawn) [BI14]	3	3	5	4	5	3	5	5	5	5	5	4
COC1=C(C)C(O)N(c2cc(C(C)(C)F)c(C#N)nn2)C1=O (stereo not drawn) [BI15]	5	4	5	5	5	2	5	4	5	5	5	2
COC1=C(C)C(O)N(c2cc(C(C)(C)F)c(C)nn2)C1=O (stereo not drawn) [BI16]	5	3	5	4	5	3	5	4	5	5	5	4
COC1=C(C)C(O)N(c2cc(C(C)(F)F)c(-c3ccc(F)cc3)nn2)C1=O (stereo not drawn) [BI17]	4	4	4	3	4	2	5	4	5	5	5	3
CC#Cc1nnc(N2C(=O)C(OC)=C(C)C2O)cc1C(C)(F)F (stereo not drawn) [BI18]	4	3	4	3	3	1	5	3	5	5	4	2
C=C(OCC)c1nnc(N2C(=O)C(OC)=C(C)C2O)cc1C(C)(F)F (stereo not drawn) [BI19]	5	3	5	5	3	2	5	4	5	5	4	3
COC1=C(C)C(O)N(c2cc(C(C)(F)F)c(-c3ccc(C)c(F)c3)nn2)C1=O (stereo not drawn) [BI20]	0	2	3	1	1	1	5	2	5	3	4	1
COC1=C(C)C(O)N(c2cc(C(C)(F)F)c(-c3cccnc3)nn2)C1=O (stereo not drawn) [BI21]	2	2	2	2	3	0	3	4	5	4	4	1
COC1=C(C)C(O)N(c2cc(C(C)(F)F)c(Cl)nn2)C1=O (stereo not drawn) [BI22]	4	4	5	5	4	3	5	5	5	5	5	3
COC1=C(C)C(O)N(c2cc(C(C)(F)F)c(C#N)nn2)C1=O (stereo not drawn) [BI23]	4	4	5	4	2	1	4	4	3	4	4	1
